Results from publication PMC8246065 (The EMBO Journal, 2021).
Each block holds one molecule with its values, some of them ahead of it.

What was measured:
NOD2 = NOD2 (Homo sapiens, UniProt Q9HC29); assay: Microscale thermophoresis (MST) binding to purified NOD2-GFP; conditions: read-out: Kd value of ADP alone with NOD2
Protocol: (§1) The lysates were incubated with 2 ml GFP‐Trap agarose at 4°C for 4 h. The agarose was collected with Poly‐Prep columns by gravity flow. […] To remove heat shock proteins, columns were further washed with 50 ml wash buffer III (50 mM Tris–HCl, pH 7.5, 150 mM NaCl, 5 mM MgCl2+, 1 mM ATP). To elute the proteins, the agarose was mixed with 2 ml elution buffer (100 mM Glycine, pH 2.5) for 1 min and the eluted proteins were immediately neutralized with 0.2 ml of 1 M Tris, pH 10.5.

NOD1 [1] = biological target: T1, NOD1 (Homo sapiens, UniProt Q9Y239); assay: Microscale thermophoresis (MST) binding to purified NOD1-GFP; conditions: read-out: Kd value of ADP alone with NOD1
T1 sequence (Q9Y239 1-953): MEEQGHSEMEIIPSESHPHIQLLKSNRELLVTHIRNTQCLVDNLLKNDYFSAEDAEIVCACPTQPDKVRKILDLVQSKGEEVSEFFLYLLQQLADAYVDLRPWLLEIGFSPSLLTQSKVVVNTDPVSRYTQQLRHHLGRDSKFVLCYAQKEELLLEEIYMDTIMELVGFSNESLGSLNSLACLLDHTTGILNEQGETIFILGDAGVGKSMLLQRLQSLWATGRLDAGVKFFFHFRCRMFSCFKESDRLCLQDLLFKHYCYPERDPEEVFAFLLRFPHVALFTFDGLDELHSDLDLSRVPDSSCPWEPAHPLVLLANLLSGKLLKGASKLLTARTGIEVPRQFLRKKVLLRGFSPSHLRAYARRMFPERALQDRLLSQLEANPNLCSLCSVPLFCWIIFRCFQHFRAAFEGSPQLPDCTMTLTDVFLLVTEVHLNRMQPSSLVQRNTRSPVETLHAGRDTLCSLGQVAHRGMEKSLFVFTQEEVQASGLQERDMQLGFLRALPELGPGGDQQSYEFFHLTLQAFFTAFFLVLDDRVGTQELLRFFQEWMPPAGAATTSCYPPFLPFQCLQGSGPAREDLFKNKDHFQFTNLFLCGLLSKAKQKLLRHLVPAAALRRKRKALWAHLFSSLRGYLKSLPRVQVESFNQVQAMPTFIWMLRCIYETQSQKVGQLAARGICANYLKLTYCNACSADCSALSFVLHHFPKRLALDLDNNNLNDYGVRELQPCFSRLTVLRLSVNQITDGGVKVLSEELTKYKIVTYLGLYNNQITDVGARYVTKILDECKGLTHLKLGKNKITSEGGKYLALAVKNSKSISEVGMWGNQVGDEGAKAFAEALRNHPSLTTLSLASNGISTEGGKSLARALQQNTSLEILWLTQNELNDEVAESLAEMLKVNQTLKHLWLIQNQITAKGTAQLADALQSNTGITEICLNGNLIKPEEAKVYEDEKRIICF
Protocol: as §1

NOD1 [2] = system: NOD1; parameters: method as in Askari et al, 2012; conditions: quoted by referee; ref Askari et al, 2012; read-out: NOD1 affinity, IC50; cited from earlier work
[3] = system: human dermal fibroblasts (HDFs); assay: S1P quantification by ELISA in cell lysates; assay type: cell-based; conditions: primary fibroblasts, Fig 3C
Protocol: Human neonatal dermal fibroblasts were grown in DMEM full medium. For each condition, 2x T75 flask cells were required. After 4‐h stimulation with various stressors, cells were washed with PBS and collected in lysis buffer (20 mM PIPES PH7.4, 150 mM NaCl, 1 mM EGTA, 1% v/v Triton X‐100, 1.5 mM MgCl2, 0.1% SDS, 1X PhosSTOP, 1X Protease inhibitor cocktail without EDTA). Protein concentration was measured by BCA assay kit (Thermo Fisher) and diluted with delipidized serum to 1 µg/µl. Then, the diluted samples were added into S1P ELISA plates according to the instructions.

BMDMs and fibroblasts = assay: Cell death upon stressor treatment; assay type: cell-based; conditions: same concentration
Protocol: Cell viability assays were performed with CellTiter 96 AQueous one solution reagent (Promega) according to the manufacturer’s instructions. Cell viability upon various stimulations was normalized to corresponding controls.

THP‐1 cells = assay: IL6 expression and production in THP-1 cells upon ER stress (de novo vs hydrolysis pathway inhibitors); assay type: cell-based, human; conditions: THP-1, tunicamycin 5 µg/ml, Appendix Fig S2
Protocol: The human monocytic cell line THP‐1 was obtained from the American Type Culture Collection (ATCC, TIB‐202) and maintained in RPMI 1640 (Gibco, 31870) with 10% (v:v) heat‐inactivated fetal bovine serum (FBS, Sigma‐Aldrich, F0804), 1 mM sodium pyruvate (Gibco, 11360070), 2 mM L‐glutamine (Gibco, 25030081), 10 mM HEPES buffer (Gibco, 15630080), pH 7.2‐7.5, and 50 µM 2‐mercaptoethanol (Gibco, 31350010). To differentiate THP‐1 into macrophage‐like cells, THP‐1 cells were stimulated with 50 ng/ml phorbol 12‐myristate 13‐acetate (Sigma‐Aldrich, P8139) for 24 h and then incubated with fresh medium for another 48 h. HEK293T WT and HEK293T NOD1/2 dKO cells were generated as described (Dagil et al, 2016). HeLa inducible NOD1‐GFP and NOD2‐GFP cells were generated by co‐transfection of pcDNA5/FRT/TO‐EGFP‐NOD1 or pcDNA5/FRT/TO‐EGFP‐NOD2 (Addgene #131206 and #131207) together with pOG44 in a 9:1 ratio into HeLa FlpIN T‐REx cells (kindly provided by the Hentze Lab, EMBL, Heidelberg) using Lipofectamine 2000 (Thermo Fisher Scientific) and selected with 10 µg/ml blasticidin and 500 µg/ml hygromycin B. HeLa inducible NOD1‐GFP and NOD2‐GFP cells, human neonatal dermal fibroblasts, and HEK293T cells (DSMZ, ACC305) were maintained in complete Dulbecco’s modified Eagle’s medium (DMEM) 4.5 g/l glucose (Gibco, 10938) with 10% (v:v) heat‐inactivated FBS, 1 mM sodium pyruvate, and 2 mM L‐glutamine. To induce NOD1 or NOD2 expression, HeLa NOD1 or NOD2 cells were treated with 0.5 µg/ml or 0.25 µg/ml doxycycline for at least 16 h, respectively. All cells have been checked for mycoplasma contamination regularly. […]
(§2) Total RNA was isolated with TRIzol reagent, as described by the manufacturer (Invitrogen). […] Gene expression was normalized to glyceraldehyde‐3‐phosphate dehydrogenase (GAPDH), and fold changes were calculated against corresponding controls. qRT–PCR data were representative of at least three independent experiments, with at least 2 technical replicates per experiment. […]

[4] = system: HDFs and HeLa inducible NOD1 or NOD2 cells; assay: IL6 expression and production in response to various stressors with sphingosine kinase inhibition; assay type: cell-based, human; conditions: SPHKi 50 µM (Fig 3D-G)
Protocol: (§3) The human monocytic cell line THP‐1 was obtained from the American Type Culture Collection (ATCC, TIB‐202) and maintained in RPMI 1640 (Gibco, 31870) with 10% (v:v) heat‐inactivated fetal bovine serum (FBS, Sigma‐Aldrich, F0804), 1 mM sodium pyruvate (Gibco, 11360070), 2 mM L‐glutamine (Gibco, 25030081), 10 mM HEPES buffer (Gibco, 15630080), pH 7.2‐7.5, and 50 µM 2‐mercaptoethanol (Gibco, 31350010). To differentiate THP‐1 into macrophage‐like cells, THP‐1 cells were stimulated with 50 ng/ml phorbol 12‐myristate 13‐acetate (Sigma‐Aldrich, P8139) for 24 h and then incubated with fresh medium for another 48 h. HEK293T WT and HEK293T NOD1/2 dKO cells were generated as described (Dagil et al, 2016). […]
as §2

[5] = system: THP‐1 cells, BMDMs, and human CD14+ monocytes; assay: IL6 expression and production upon tunicamycin-induced ER stress with sphingolipid pathway inhibitors; assay type: cell-based; conditions: inhibitor pretreatment, tunicamycin 5 µg/ml; all types of cells
Protocol: as §3, §2

Sequence of NOD2 (Q9HC29 whole entry): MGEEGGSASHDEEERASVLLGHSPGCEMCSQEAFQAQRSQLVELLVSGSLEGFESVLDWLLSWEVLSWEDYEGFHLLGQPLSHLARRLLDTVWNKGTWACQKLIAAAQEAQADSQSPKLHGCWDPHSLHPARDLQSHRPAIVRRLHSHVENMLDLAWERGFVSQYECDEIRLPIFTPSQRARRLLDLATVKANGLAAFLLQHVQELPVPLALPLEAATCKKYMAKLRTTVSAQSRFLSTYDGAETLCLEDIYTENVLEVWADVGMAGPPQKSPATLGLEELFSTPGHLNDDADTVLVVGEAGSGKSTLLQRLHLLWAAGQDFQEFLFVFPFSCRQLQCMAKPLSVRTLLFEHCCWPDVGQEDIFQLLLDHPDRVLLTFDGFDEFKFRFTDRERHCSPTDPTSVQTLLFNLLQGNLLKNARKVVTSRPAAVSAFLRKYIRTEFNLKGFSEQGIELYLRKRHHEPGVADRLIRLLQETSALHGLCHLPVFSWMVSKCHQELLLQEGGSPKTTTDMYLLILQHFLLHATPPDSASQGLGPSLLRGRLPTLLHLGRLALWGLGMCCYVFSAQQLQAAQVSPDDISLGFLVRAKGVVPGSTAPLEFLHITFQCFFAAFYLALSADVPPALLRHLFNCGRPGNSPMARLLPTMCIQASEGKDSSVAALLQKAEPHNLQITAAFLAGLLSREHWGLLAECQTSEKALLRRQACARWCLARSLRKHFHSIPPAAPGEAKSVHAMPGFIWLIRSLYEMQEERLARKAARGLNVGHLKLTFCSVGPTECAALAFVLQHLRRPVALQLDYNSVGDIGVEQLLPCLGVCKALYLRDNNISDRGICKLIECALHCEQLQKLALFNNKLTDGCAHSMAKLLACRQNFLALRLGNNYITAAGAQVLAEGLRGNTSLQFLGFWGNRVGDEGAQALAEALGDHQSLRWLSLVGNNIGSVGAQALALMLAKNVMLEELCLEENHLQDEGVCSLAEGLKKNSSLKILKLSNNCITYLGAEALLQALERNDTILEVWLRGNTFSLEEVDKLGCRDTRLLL

Kd (NOD2): ~0.15 µM | Kd (NOD1 [1]): ~0.1 µM
Compound: Nc1ncnc2c1ncn2[C@@H]1O[C@H](COP(=O)(O)OP(=O)(O)O)[C@@H](O)[C@H]1O [ADP]
IC50 (NOD1 [2]): ~0.19 µM

Compound: Nc1ncnc2c1ncn2[C@@H]1O[C@H](COP(=O)(O)OP(=O)(O)OP(=O)(O)O)[C@@H](O)[C@H]1O [ATP]
IC50 (NOD1 [2]): ~0.015 µM

Compound: C[C@@H]1C[C@@H]([C@H](O)CC2CC(=O)NC(=O)C2)C(=O)[C@@H](C)C1 [CHX, cycloheximide]
Level of S1P in fibroblasts upon stressor [3]: highest level of S1P in fibroblasts | Cell death in BMDMs compared with fibroblasts (BMDMs and fibroblasts): higher

Compound: O=C(/C=C/c1ccc(/C=C/C(=O)Nc2ccc(C3=NCCN3)cc2)cc1)Nc1ccc(C2=NCCN2)cc1 [GW4869]
IL6 expression and production upon ER stress (THP‐1 cells): not

Compound: N[C@H]1CON=C1O [L‐cycloserine]
IL6 expression and production upon ER stress (THP‐1 cells): not

Compound: Oc1ccc(Nc2nc(-c3ccc(Cl)cc3)cs2)cc1 [SKI‐II]
IL6 expression and production in response to various stressors [4]: markedly diminished | IL6 expression and production upon tunicamycin-induced ER stress [5]: abolished

Compound: COc1ccc(/C=C/C(=O)c2c(-c3ccccc3)c3ccccc3[nH]c2=O)cc1 [ceranib‐2]
IL6 expression and production upon tunicamycin-induced ER stress [5]: abolished

Compound: CN(C)CCCN1c2ccccc2CCc2ccccc21 [imipramine]
IL6 expression and production upon ER stress (THP‐1 cells): abrogated
